# Test results published in patent US11713309B2, “Solid forms of Cerdulatinib” (Alexion Pharmaceuticals, Inc., priority 2018, dated 2023).
# Counter-ions that a name gives are not always drawn.
# Legend:
# Format in all cases: physicochemical
# [1] = Slurry maturations in various solvents (form reproducibility/stability); conditions: acetonitrile, EtOAc, ethanol, IPA; cycling about 25 to about 50° C., about 4 days
# Description: A series of slurry maturations in various solvents was performed to further analyze the form reproducibility/stability of the esylate, mesylate, HCl, and sulfate salts/co-crystals of Compound I. The solvents chosen were acetonitrile, EtOAc, ethanol, and IPA. The input materials were the salts/co-crystals of Compound I formed via the second scale up process. About 20 mg of each sample was charged to reflux tubes and heated with temperature cycling between about 25 and about 50° C. for about 4 days. The resulting materials were isolated by filtration and dried in vacuo at about 40° C. The results of the slurry maturations for the resulting HCl and mesylate salts/co-crystals are presented in subsections (a)-(d) below. The data for the resulting esylate and sulfate salts/co-crystals of Compound have been omitted due to notable form variation.
# [2] = Dynamic vapor sorption (DVS) analysis
# Source text: In view of the DVS analysis, compound I HCl Form I may be characterized as a monohydrate.
# [3] = Approximate kinetic solubility in simulated biological fluids; conditions: about 37° C.; for solubility kinetic at 2 h: equilibrated for 2 hrs; for solubility kinetic at 1 day: equilibrated for 1 day
# Source text: (§1) A summary of the approximate kinetic solubility of Compound I HCl Form I in organic solvents, simulated biological fluids, and common pharmaceutical co-solvents is provided in Tables 8-10, respectively.
# [4] = Approximate kinetic solubility in pharmaceutical co-solvents; conditions: aqueous with cosolvent or surfactant or cyclodextrin, thermodynamic from solid, no-pH adjustment
# Source text: as §1
# [5] = Thermodynamic pH-solubility profile; conditions: 7 days of shaking, about 37° C. water bath
# Source text: A thermodynamic pH-solubility profile of Compound I HCl Form I in various buffer or non-buffer solutions is further provided in FIG. 61. FIG. 61 additionally includes the thermodynamic pH-solubility profile of Compound I free base. It is of note that no data is shown in the profile of Compound I free base below a pH of about 2.0, as Compound I free base converted to Compound I HCl Form I below a pH of about 2.0. Similarly, no data is shown in the profile of Compound I HCl Form I above a pH of about 3.0, as Compound I HCl Form I converted to Compound I free base above a pH of about 3.0.
# [6] = Storage under vacuum at 40° C. and at 60° C.; conditions: 4 days, initial HPLC purity 99.3%
# Description: Storage under vacuum at 40° C. and at 60° C.: Compound I HCl Form I was stored under vacuum at 40° C. and at 60° C. Initial HPLC purity was 99.3%.
# [7] = Kinetic solubility in SGF; conditions: listed as HC1 salt Form I
# Description: Kinetic solubility testing was conducted as follows: About 40-55 mg material was weighed into a 5-mL EP pipe. 4 mL of water/bio-relevant media (SGF, FaSSIF, or FeSSIF) was added into the corresponding sample pipe (drug loading: ˜10 mg/mL calculated as freebase). The pipes were capped tightly and the material was verified to be in contact with the media. The sample vials were placed on a roller and start rolling at 37° C. (rate: 25 r/min). Samples were taken at 1, 2, 4, 24 h. For each time point, 1.0 mL of suspension was transferred into a 2-mL centrifuge tube and the samples were centrifuged. The supernatant was filtered via 0.45 μm PTFE membrane and solubility and pH were measured. An XRPD test on residual solids was conducted.
# [8] = simulated gastric fluid, SGF (pH 1.2)
# [9] = 2% Captisol in aqueous solution
# [10] = 5% Captisol in aqueous solution
# [11] = 5% Pharmasolve in aqueous solution
# [12] = 5% Poloxamer F68 in aqueous solution
# [13] = 10% Captisol in aqueous solution
# [14] = 10% HP-β-CD in aqueous solution
# [15] = 10% Labrasol in aqueous solution
# [16] = 10% Pharmasolve in aqueous solution
# [17] = 10% Poloxamer F68 in aqueous solution
# [18] = 20% HP-β-CD in aqueous solution
# [19] = 20% Labrasol in aqueous solution
# [20] = 30% HP-β-CD in aqueous solution
# [21] = 35% Labrasol in aqueous solution
# [22] = 40% Captisol in aqueous solution
# [23] = 40% HP-β-CD in aqueous solution
# [24] = 50% Labrasol in aqueous solution
structure (smiles),measurement,setting,value
"CCS(=O)(=O)N1CCN(c2ccc(Nc3ncc(C(N)=O)c(NC4CC4)n3)cc2)CC1 [Compound I HCl Form I, 4-(cyclopropylamino)-2-(4-(4-(ethylsulfonyl)piperazin-1-yl)phenylamino)pyrimidine-5-carboxamide]",Form after slurry maturation (XRPD),[1],does not experience any form change
same,De-hydration and re-hydration behaviour (DVS),[2],reversible
same,RH at which complete moisture re-uptake is observed (DVS),[2],about 20 % RH
same,DVS weight,[2]; below about 10% RH,up to 3.5%
same,DVS moisture uptake,[2]; between about 40% and about 90% RH,minimal moisture uptake with no hysteresis
same,solubility kinetic at 2 h,[3]; FaSSIF (pH 6.1),3 µg/mL
same,solubility kinetic at 1 day,[3]; FaSSIF (pH 6.1),3 µg/mL
same,solubility kinetic at 2 h,[3]; FeSSIF (pH 5.0),35 µg/mL
same,solubility kinetic at 1 day,[3]; FeSSIF (pH 5.0),39 µg/mL
same,solubility kinetic at 2 h,[3]; [8],67 µg/mL
same,solubility kinetic at 1 day,[3]; [8],78 µg/mL
same,solubility kinetic at 2 h,[4]; [9],2040 µg/mL
same,solubility kinetic at 24 h,[4]; [9],2510 µg/mL
same,solubility kinetic at 7 days,[4]; [9],2540 µg/mL
same,solubility kinetic at 2 h,[4]; 3% HP-β-CD in aqueous solution,990 µg/mL
same,solubility kinetic at 24 h,[4]; 3% HP-β-CD in aqueous solution,1120 µg/mL
same,solubility kinetic at 7 days,[4]; 3% HP-β-CD in aqueous solution,1020 µg/mL
same,solubility kinetic at 2 h,[4]; 3% TPGS in aqueous solution,1060 µg/mL
same,solubility kinetic at 24 h,[4]; 3% TPGS in aqueous solution,640 µg/mL
same,solubility kinetic at 7 days,[4]; 3% TPGS in aqueous solution,540 µg/mL
same,solubility kinetic at 2 h,[4]; [10],3010 µg/mL
same,solubility kinetic at 24 h,[4]; [10],3610 µg/mL
same,solubility kinetic at 7 days,[4]; [10],3750 µg/mL
same,solubility kinetic at 2 h,[4]; 5% HP-β-CD in aqueous solution,1450 µg/mL
same,solubility kinetic at 24 h,[4]; 5% HP-β-CD in aqueous solution,1390 µg/mL
same,solubility kinetic at 7 days,[4]; 5% HP-β-CD in aqueous solution,1590 µg/mL
same,solubility kinetic at 2 h,[4]; [11],430 µg/mL
same,solubility kinetic at 24 h,[4]; [11],690 µg/mL
same,solubility kinetic at 2 h,[4]; [12],230 µg/mL
same,solubility kinetic at 24 h,[4]; [12],180 µg/mL
same,solubility kinetic at 2 h,[4]; 5% TPGS in aqueous solution,1610 µg/mL
same,solubility kinetic at 24 h,[4]; 5% TPGS in aqueous solution,1530 µg/mL
same,solubility kinetic at 7 days,[4]; 5% TPGS in aqueous solution,1320 µg/mL
same,solubility kinetic at 2 h,[4]; [13],3040 µg/mL
same,solubility kinetic at 24 h,[4]; [13],3410 µg/mL
same,solubility kinetic at 7 days,[4]; [13],3670 µg/mL
same,solubility kinetic at 2 h,[4]; [14],1880 µg/mL
same,solubility kinetic at 24 h,[4]; [14],2030 µg/mL
same,solubility kinetic at 7 days,[4]; [14],1930 µg/mL
same,solubility kinetic at 2 h,[4]; [15],1150 µg/mL
same,solubility kinetic at 24 h,[4]; [15],820 µg/mL
same,solubility kinetic at 7 days,[4]; [15],700 µg/mL
same,solubility kinetic at 2 h,[4]; [16],700 µg/mL
same,solubility kinetic at 24 h,[4]; [16],570 µg/mL
same,solubility kinetic at 2 h,[4]; [17],260 µg/mL
same,solubility kinetic at 24 h,[4]; [17],210 µg/mL
same,solubility kinetic at 2 h,[4]; 10% TPGS in aqueous solution,1800 µg/mL
same,solubility kinetic at 24 h,[4]; 10% TPGS in aqueous solution,1930 µg/mL
same,solubility kinetic at 7 days,[4]; 10% TPGS in aqueous solution,1720 µg/mL
same,solubility kinetic at 2 h,[4]; [18],2630 µg/mL
same,solubility kinetic at 24 h,[4]; [18],2810 µg/mL
same,solubility kinetic at 7 days,[4]; [18],2650 µg/mL
same,solubility kinetic at 2 h,[4]; [19],1840 µg/mL
same,solubility kinetic at 24 h,[4]; [19],1850 µg/mL
same,solubility kinetic at 7 days,[4]; [19],1710 µg/mL
same,solubility kinetic at 2 h,[4]; 20% PEG in aqueous solution,270 µg/mL
same,solubility kinetic at 24 h,[4]; 20% PEG in aqueous solution,370 µg/mL
same,solubility kinetic at 2 h,[4]; 20% TPGS in aqueous solution,2450 µg/mL
same,solubility kinetic at 24 h,[4]; 20% TPGS in aqueous solution,2420 µg/mL
same,solubility kinetic at 7 days,[4]; 20% TPGS in aqueous solution,2620 µg/mL
same,solubility kinetic at 2 h,[4]; [20],2980 µg/mL
same,solubility kinetic at 24 h,[4]; [20],2940 µg/mL
same,solubility kinetic at 2 h,[4]; 30% PEG in aqueous solution,420 µg/mL
same,solubility kinetic at 24 h,[4]; 30% PEG in aqueous solution,450 µg/mL
same,solubility kinetic at 7 days,[4]; 30% PEG in aqueous solution,410 µg/mL
same,solubility kinetic at 2 h,[4]; [21],1900 µg/mL
same,solubility kinetic at 24 h,[4]; [21],2010 µg/mL
same,solubility kinetic at 7 days,[4]; [21],1800 µg/mL
same,solubility kinetic at 2 h,[4]; [22],4250 µg/mL
same,solubility kinetic at 24 h,[4]; [22],4400 µg/mL
same,solubility kinetic at 7 days,[4]; [22],4330 µg/mL
same,solubility kinetic at 2 h,[4]; [23],3860 µg/mL
same,solubility kinetic at 24 h,[4]; [23],3840 µg/mL
same,solubility kinetic at 7 days,[4]; [23],4120 µg/mL
same,solubility kinetic at 2 h,[4]; [24],2050 µg/mL
same,solubility kinetic at 24 h,[4]; [24],2650 µg/mL
same,solubility kinetic at 7 days,[4]; [24],2200 µg/mL
same,solubility kinetic at 2 h,[4]; 50% PEG in aqueous solution,2170 µg/mL
same,solubility kinetic at 24 h,[4]; 50% PEG in aqueous solution,870 µg/mL
same,solubility kinetic at 7 days,[4]; 50% PEG in aqueous solution,690 µg/mL
same,pH range in which Compound I HCl Form I converted to Compound I free base,[5],> 3.0
same,Form change / HPLC purity on storage under vacuum,[6]; 40° C.,No form change or decrease in purity by HPLC
same,Form change / HPLC purity on storage under vacuum,[6]; 60° C.,No form change or decrease in purity by HPLC
same,Solubility (mg/mL) 1 h,"[7]; SGF, 37° C., 1 h, drug loading ~10 mg/mL as freebase",0.041 mg/mL
same,Solubility (mg/mL) 2 h,"[7]; SGF, 37° C., 2 h",0.039 mg/mL
same,Solubility (mg/mL) 4 h,"[7]; SGF, 37° C., 4 h",0.036 mg/mL
same,Solubility (mg/mL) 24 h,"[7]; SGF, 37° C., 24 h",0.035 mg/mL
same,Final Form,"[7]; XRPD of residual solids, SGF, 1 h, 2 h, 4 h, 24 h",HC1 salt Form I
same,pH 1 h,"[7]; supernatant, SGF (native pH 1.8), 1 h",1.9
same,pH 2 h,"[7]; supernatant, SGF (native pH 1.8), 2 h",1.9
same,pH 4 h,"[7]; supernatant, SGF (native pH 1.8), 4 h",2.0
same,pH 24 h,"[7]; supernatant, SGF (native pH 1.8), 24 h",2.0
